Consider 4 compounds from US8952054B2, “Small molecule inhibitors of MUC1 and methods of identifying the same” (Dana-Farber Cancer Institute, Inc., priority 2010, dated 2015).

In assay [1] the test system is MUC1. The assay is described as follows: MUC1 mRNA (qRT-PCR) and MUC1-C protein (immunoblot) in MCF-7 cells. The format is cell-based, human. The settings on record: for MUC1 mRNA levels: MCF-7, 75 μM, 3 d, qRT-PCR; for MUC1-C protein in the nucleus / MUC1-C protein in whole cell lysates: MCF-7, 3 days. As for the experimental part: FIGS. 14A-E—Apigenin suppresses MUC1 expression in MCF-7 cells. (FIG. 14A) MCF-7 cells were treated with DMSO vehicle, 75 μM apigenin or 75 μM baicalein for 3 d. Total RNA was assayed for MUC1 mRNA levels by qRTPCR. The results (mean+SD of 3 determinations) are expressed as relative MUC1 mRNA levels as compared to that obtained in cells treated with DMSO. (FIGS. 14B-C) MCF-7 cells were treated with the indicated concentrations of apigenin and baicalein for 3 days. Nuclear (FIG. 14B) and whole cell lysates (FIG. 14C) were immunoblotted with the indicated antibodies. D. Lysates from MCF-7 cells were infected to stably express a control lentivirus and one with a MUC1 shRNA were immunoblotted with the indicated antibodies. (FIG. 14E) The indicated MCF-7 cells were treated with […] apigenin for 3 d. Viable cell number was determined by the MTS assay. The results (mean+SD of 3 determinations) are expressed as percentage of control growth in the presence of DMSO.
In general terms: Real-time PCR tracks product formation cycle by cycle.

In assay [2] the target is T1, MUC1-C (Homo sapiens, UniProt P15941).
T1 sequence (P15941 1098-1255 limits assumed): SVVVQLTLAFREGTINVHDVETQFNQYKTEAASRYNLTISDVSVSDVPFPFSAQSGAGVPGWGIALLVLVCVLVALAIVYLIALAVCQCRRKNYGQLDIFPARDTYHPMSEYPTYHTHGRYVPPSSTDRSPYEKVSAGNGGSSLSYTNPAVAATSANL
Description: Immunoblot of MUC1-C levels in MCF-10A cells (flavones). To be noted: 50 to 100 μM, 3 d then additional 3 d. Type of assay: cell-based. Also noted: endogenous in cells. As for the experimental part:
FIGS. 13A-D—Apigenin downregulates MUC1 and confers death of MCF-10A cells. (FIG. 13A) MCF-10A cells were treated with the indicated concentrations of apigenin and baicalein for 3 d, washed and then treated for an additional 3 d. Lysates were immunoblotted with the indicated antibodies. (FIG. 13B) MCF-10A cells were treated with the indicated concentrations apigenin (circles) and baicalein (squares) for 3 d. Viable cell number was determined by the MTS assay. The results (mean+SD of 3 determinations) are expressed as percentage of control growth in the presence of DMSO. (FIG. 13C) MCF-10A cells were treated with DMSO, 75 μM apigenin or 75 μM baicalein for 3 d. Lysates were subjected to immunoblotting with the indicated antibodies. (FIG. 13D) MCF-10A cells were treated with DMSO, 75 μM apigenin or 75 μM baicalein for 3 d, stained with propidium iodide and analyzed by flow cytometry.
On the technique in general: A western blot detects proteins with antibodies after separation by electrophoresis.

The target of assay [3] is T2, His-MUC1-CD (Homo sapiens, UniProt P15941).
T2 construct: made in house
T2 sequence (P15941 1184-1255): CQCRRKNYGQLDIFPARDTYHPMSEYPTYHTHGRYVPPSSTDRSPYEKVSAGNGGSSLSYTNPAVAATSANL
Description: BIAcore binding of peptides to immobilized His-MUC1-CD. As for the experimental part:
FIGS. 1A-D. MUC1/CQC peptide blocks MUC1 oligomerization. (FIG. 1A) Schematic representation of the MUC1-C subunit and the 72-amino acid sequence of MUC1-CD (SEQ ID NO: 1) are shown. The N-terminal 15 amino acids (shaded sequence) MUC1/CQC (SEQ ID NO: 10) and mutated MUC1/AQA (SEQ ID NO: 11) peptides were synthesized with the poly-dArg transduction domain. (FIG. 1B) His-MUC1-CD (1.4 mg/ml) was immobilized on a sensor chip in a BIAcore. MUC1/CQC was injected over the chip at 10 μM. Raw binding data were analyzed by BIAevaluation software version 3.0 and fit to a 1:1 Languir binding model. (FIG. 1C) Purified His-MUC1-CD (1.5 mg/ml) was incubated with PBS, 200 μM MUC1/CQC or 200 μM MUC1/AQA for 1 h at room temperature. The proteins were separated in a non-reducing SDS-polyacrylamide gel and analyzed by immunoblotting with anti-MUC1-C. (FIG. 1D) 293 cells were transiently transfected to express an empty vector or GFP-MUC1-CD and Flag-MUC1-CD. At 48 h after transfection, the cells were treated with 5 μM MUC1/CQC or MUC1/AQA for 3 d. The cells were then harvested for immunoblotting with anti-MUC1-C (left panel). […]
The MUC1 cytoplasmic domain (MUC1-CD) contains a CQC motif that is necessary for the formation of oligomers and nuclear localization (Leng et al., 2007). […] Purified His-tagged MUC1-CD forms oligomers as detected by electrophoresis in polyacrylamide gels (FIG. 1C). […]
On the technique in general: SPR reads the build-up and loss of mass on a sensor chip optically.

In assay [4] the test system is ZR-75-1 cells. The assay is described as follows: Cell cycle distribution, apoptosis and necrosis by flow cytometry, ZR-75-1. The format is cell-based, human. The settings on record: ZR-75-1, 5 μM; for necrosis (propidium iodide): detectable at 72 h, more prominent at 96 h. As for the experimental part: FIGS. 3A-D. MUC1/CQC peptide induces S phase arrest and necrosis. ZR-75-1 (FIGS. 2A-B) and MCF-7 (FIGS. 2C-D) cells were treated with 5 μM MUC1/CQC or MUC1/AQA for 3 and 4 d. Cells were fixed and analyzed for cell cycle distribution by flow cytometry (FIGS. 2A and 2C). The percentage of cells in G1, S and G2/M phases is included in the panels. Cells were also stained with propidium iodide and analyzed by flow cytometry for necrosis (FIGS. 2B and 2D). The percentage of necrotic cells is included in the panels.
Cells were harvested, washed with PBS, fixed with 80% ethanol, and incubated in PBS containing 40 μg/ml RNAse and 40 μg/ml propidium iodide for 30 min at 37° C. Cell cycle distribution was determined by flow cytometry. Sub-G1 DNA content was assessed by staining ethanol-fixed and citrate buffer-permeabilized cells with propidium iodide and monitoring by flow cytometry as described (Yin et al., 2007). For assessment of necrosis, cells were incubated with 1 μg/ml propidium iodide/PBS for 5 min at room temperature and then monitored by flow cytometry as described (Yin et al., 2007).

As for `O=c1cc(-c2ccc(O)cc2)oc2cc(O)cc(O)c12` [Apigenin, 4′,5,7-trihydroxyflavone], in assay [1], the “MUC1 mRNA levels” value is recorded as “downregulation of MUC1 mRNA levels”, the “MUC1-C protein in the nucleus” value is reported as “decreased expression of the MUC1-C protein” and the “MUC1-C protein in whole cell lysates” value is on record as “decreased expression of the MUC1-C protein”. Besides, in assay [2], the MUC1-C levels entry is “downregulation of MUC1-C levels”.

Turning to `O=c1cc(-c2ccccc2)oc2cc(O)c(O)c(O)c12` [Baicalein, 5,6,7-trihydroxyflavone, reference compound], in assay [1], the “MUC1 mRNA levels” value is recorded as “no apparent effect”, the “MUC1-C protein in the nucleus” value is reported as “not” and the “MUC1-C protein in whole cell lysates” value is “not”. In assay [2], the MUC1-C levels entry is on record as “no apparent effect”.

Take “MUC1/AQA: control peptide in which the CQC motif was altered to AQA (SEQ ID NO: 11) (AQARRKNYGQLDIFP) [reference compound]”: the “binding to His-MUC1-CD” value in assay [3] (BIAcore, data not shown) is on record as “no apparent binding”. In assay [4], the “necrosis (propidium iodide)” value was “not”.

For the compound `CC[C@H](C)[C@H](NC(=O)[C@H](CC(=O)O)NC(=O)[C@H](CC(C)C)NC(=O)[C@H](CCC(N)=O)NC(=O)CNC(=O)[C@H](Cc1ccc(O)cc1)NC(=O)[C@H](CC(N)=O)NC(=O)[C@H](CCCCN)NC(=O)[C@H](CCCNC(=N)N)NC(=O)[C@H](CCCNC(=N)N)NC(=O)[C@H](CS)NC(=O)[C@H](CCC(N)=O)NC(=O)[C@H](CS)NC(=O)[C@@H](CCCNC(=N)N)NC(=O)[C@@H](CCCNC(=N)N)NC(=O)[C@@H](CCCNC(=N)N)NC(=O)[C@@H](CCCNC(=N)N)NC(=O)[C@@H](CCCNC(=N)N)NC(=O)[C@@H](CCCNC(=N)N)NC(=O)[C@@H](CCCNC(=N)N)NC(=O)[C@@H](CCCNC(=N)N)NC(=O)[C@H](N)CCCNC(=N)N)C(=O)N[C@@H](Cc1ccccc1)C(=O)N1CCC[C@H]1C(=O)O` [MUC1/CQC], in assay [3] (His-tagged MUC1-CD immobilized on BIAcore sensor chip, peptide injected at 10 μM, 1:1 binding model, read-out: dissociation constant (Kd)), the dissociation constant (Kd) worked out at 30 nM. In addition, in assay [4], the “sub-G1 DNA content (apoptosis)” value was “little if any accumulation of cells with sub-G1 DNA content” and the “necrosis (propidium iodide)” value was “induction of necrosis”. The cell cycle distribution result in assay [4] (72 h) is listed as “substantial arrest in S phase”. The cell cycle distribution entry in assay [4] (96 h) is given as “S phase population was decreased”.

Usually Kd stands for the concentration at which binding is half-saturated.
